From PubChem BioAssay AID977614 (Broad Institute, 2014) come the findings set out here.

Calls of active or inactive are those of the source.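 How the source made its calls: active means parasite count per well reduced by over 3 SD from the mean, with host cell number above 80% of untreated; inactive means the rest.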

For this experiment, the system named is L. donovani amastigotes in THP-1 macrophages, DAPI imaging, 72 h. In words: antileishmanial activity in infected macrophages – imaging, THP-1 host macrophages, single concentration (AID 977614).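 Further: signal is the parasite per host cell ratio from DAPI stained kinetoplasts and nuclei.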

For the molecule `CCC(=O)N1[C@H](CO)[C@H](c2ccc(C#CC3CCCCC3)cc2)[C@@H]1CNC(C)C`, the AC50 was > 10 µM (inactive).
On to `C[C@H](CO)N1C[C@H](C)[C@H](CN(C)CC2CCCCC2)OCc2cnnn2CCCC1=O`, for which the AC50 is > 10 µM (inactive).
Next, `C/C=C/c1ccc([C@@H]2[C@@H](CN(CC)C(C)=O)N(Cc3cccnc3)[C@H]2CO)cc1`: > 10 µM (inactive).
Next, `COCC(=O)NC[C@@H]1[C@@H](c2ccccc2)[C@@H](CO)N1C(=O)c1ccccc1`: > 10 µM (inactive).
Under `OC[C@H]1[C@@H]2c3ccccc3NC[C@@H]2N1Cc1ccccc1Cl` stands > 10 µM (inactive).
Take `COc1ccc(C(=O)N2C[C@@H]3[C@H](c4ccccc42)[C@@H](CO)N3C(=O)NC(C)C)cc1`: the AC50 was > 10 µM (inactive).
Under `Cc1ccc(S(=O)(=O)N2C[C@H]3[C@@H](c4ccccc42)[C@H](CO)N3Cc2cccnc2)cc1` stands > 10 µM (inactive).
For `C/C=C/c1ccc([C@H]2[C@@H](CO)N(C(=O)CC)[C@H]2CN(C)Cc2cncnc2)cc1`, the AC50 is > 10 µM (inactive).
With `Cc1noc(C)c1NC(=O)N(C)C[C@@H]1OCc2cn(nn2)CCCC(=O)N([C@H](C)CO)C[C@@H]1C`, the AC50 is > 10 µM (inactive).
Consider `CCC(=O)N(CC(C)C)C[C@H]1[C@H](c2ccccc2)[C@@H](CO)N1C(=O)C1CCC1`, for which the AC50 is > 10 µM (inactive).
Under `O=C(NC[C@@H]1[C@H](c2ccccc2)[C@H](CO)N1Cc1ccccn1)C1CCCC1` stands > 10 µM (inactive); under `C[C@@H]1CN([C@@H](C)CO)C(=O)CCCn2nncc2CO[C@H]1CN(C)C(=O)Nc1ccnc(N2CCOCC2)c1`, > 10 µM (inactive); under `O=C(NC[C@H]1[C@H](c2ccccc2)[C@H](CO)N1C(=O)Cc1ccncc1)C1CCC1`, > 10 µM (inactive).
Under `COc1ccccc1S(=O)(=O)N(C)C[C@H]1OCc2cn(nn2)CCCC(=O)N([C@@H](C)CO)C[C@@H]1C` stands > 10 µM (inactive); under `COCC(=O)NC[C@H]1[C@@H](c2ccccc2)[C@@H](CO)N1C(=O)c1ccccc1`, > 10 µM (inactive).
Under `CCNC[C@@H]1[C@@H](c2ccc(-c3ccc(F)cc3)cc2)[C@@H](CO)N1C(=O)C1CC1` stands > 10 µM (inactive); under `C/C=C/c1ccc([C@H]2[C@@H](CO)N(c3nc(C)c(C)s3)[C@@H]2CNCC(C)C)cc1`, > 10 µM (inactive); under `C[C@@H]1CN([C@@H](C)CO)C(=O)CCCn2nncc2CO[C@@H]1CN(C)C(=O)Nc1ccc2c(c1)OCCO2`, > 10 µM (inactive).
For `Cc1cccc(S(=O)(=O)N2C[C@H]3[C@@H](c4ccccc42)[C@H](CO)N3CC2CCCC2)c1`, the AC50 was > 10 µM (inactive).
Next, `C[C@H](CO)N1C[C@H](C)[C@@H](CN(C)Cc2ccccc2C(=O)O)OCc2cnnn2CCCC1=O`: > 10 µM (inactive); `COCC(=O)N(C[C@H]1[C@H](c2ccccc2)[C@H](CO)N1C(=O)NC(C)C)C(C)C`: > 10 µM (inactive); `CCN(C[C@@H]1[C@H](c2ccccc2)[C@@H](CO)N1CC1CC1)C(=O)c1ccccn1`: > 10 µM (inactive).
Under `C[C@H](CO)N1C[C@H](C)[C@@H](CN(C)S(=O)(=O)c2cccc(C#N)c2)OCc2cn(nn2)CCCC1=O` stands > 10 µM (inactive); under `O=C(Nc1cccc(Cl)c1)N1C[C@@H]2[C@H](c3ccccc31)[C@H](CO)N2Cc1cccnc1`, > 10 µM (inactive); under `Cc1noc(C)c1S(=O)(=O)N(C)C[C@@H]1OCc2cnnn2CCCC(=O)N([C@@H](C)CO)C[C@@H]1C`, > 10 µM (inactive).
As to `O=C(CN1CCOCC1)NC[C@@H]1N[C@@H](CO)[C@H]1c1ccc(-c2ccccc2)cc1`, the AC50 is > 10 µM (inactive).
Next, `COCC(=O)N(C)C[C@H]1[C@H](c2ccccc2)[C@@H](CO)N1C(=O)Cc1ccncc1`: > 10 µM (inactive); `COCC(=O)N1[C@H](CO)[C@H](c2ccc(C#CC(C)C)cc2)[C@@H]1CNC(C)=O`: > 10 µM (inactive); `CCN(C[C@H]1[C@@H](c2ccccc2)[C@H](CO)N1CC1CC1)C(=O)c1ccccn1`: > 10 µM (inactive).
Under `O=C(NC[C@@H]1[C@H](c2ccccc2)[C@@H](CO)N1C(=O)C1CCC1)NC1CCCC1` stands > 10 µM (inactive).
Next, `C/C=C/c1ccc([C@H]2[C@@H](CO)N[C@@H]2CN(CC)C(=O)CN2CCOCC2)cc1`: > 10 µM (inactive); `COc1ccc(CN(C)C[C@H]2OCc3cnnn3CCCC(=O)N([C@@H](C)CO)C[C@H]2C)cc1`: > 10 µM (inactive).
For `O=C(Nc1cccc(Cl)c1)N1C[C@@H]2[C@H](c3ccccc31)[C@@H](CO)N2Cc1cccnc1`, the AC50 is > 10 µM (inactive).
Take `CC(C)NC(=O)N1[C@H](CO)[C@H]2c3ccccc3N(C)C[C@H]21`: the AC50 is > 10 µM (inactive).
Next, `C[C@H](CO)N1C[C@H](C)[C@H](CN(C)S(=O)(=O)c2ccc(-n3cccn3)cc2)OCc2cn(nn2)CCCC1=O`: > 10 µM (inactive); `C/C=C/c1ccc([C@@H]2[C@H](CO)N(C(C)=O)[C@H]2CNC(=O)c2ccccc2)cc1`: > 10 µM (inactive).
Next, `COCC(=O)N1C[C@@H]2[C@H](c3ccccc31)[C@@H](CO)N2C(=O)c1ccccc1F`: > 10 µM (inactive).
As to `O=C(NC[C@@H]1N[C@@H](CO)[C@@H]1c1ccc(-c2ccccc2F)cc1)c1ccccn1`, the AC50 was > 10 µM (inactive).
For the molecule `C[C@H]1CN([C@@H](C)CO)C(=O)CCCn2nncc2CO[C@H]1CN(C)S(=O)(=O)c1ccc(Oc2ccccc2)nc1`, the AC50 was > 10 µM (inactive).
Under `CCN(C[C@H]1[C@@H](c2ccccc2)[C@@H](CO)N1C(=O)COC)S(C)(=O)=O` stands > 10 µM (inactive).
Next, `O=C(NC[C@@H]1[C@H](c2ccccc2)[C@H](CO)N1C(=O)C1CCC1)NC1CCCC1`: > 10 µM (inactive); `O=C(c1ccccn1)N1C[C@@H]2[C@H](c3ccccc31)[C@@H](CO)N2C(=O)Nc1ccccc1Cl`: > 10 µM (inactive); `C[C@H]1CN([C@@H](C)CO)C(=O)CCCn2nncc2CO[C@@H]1CN(C)C(=O)c1ccc(N2CCN(C)CC2)cc1`: > 10 µM (inactive).
For `CC(=O)N1[C@H](CO)[C@@H]2c3ccccc3N(C(=O)c3ccc(F)cc3)C[C@@H]21`, the AC50 was > 10 µM (inactive).
`C[C@H](CO)N1C[C@H](C)[C@@H](CN(C)C(=O)Nc2cccc(Oc3ccccn3)c2)OCc2cnnn2CCCC1=O`: the AC50 is > 10 µM (inactive).
Next, `C[C@@H]1CN([C@H](C)CO)C(=O)CCCn2cc(nn2)CO[C@@H]1CN(C)S(=O)(=O)c1ccc(-n2cccn2)cc1`: > 10 µM (inactive); `COc1ccccc1NC(=O)N1C[C@H]2[C@@H](c3ccccc31)[C@@H](CO)N2Cc1ccc2c(c1)OCO2`: > 10 µM (inactive).
Take `O=C(C1CCCCC1)N1[C@H](CO)[C@@H]2c3ccccc3NC[C@@H]21`: the AC50 is > 10 µM (inactive).
Next, `C[C@@H]1CN([C@H](C)CO)C(=O)CCCn2nncc2CO[C@@H]1CN(C)C(=O)Nc1ccccc1C(F)(F)F`: > 10 µM (inactive); `O=C(NC[C@H]1[C@@H](c2ccccc2)[C@H](CO)N1C(=O)Cc1ccncc1)C1CCC1`: > 10 µM (inactive).
